# In ChEMBL document CHEMBL1833796, “Locating the binding sites of anticancer tamoxifen and its metabolites 4-hydroxytamoxifen and endoxifen on bovine serum albumin” (Eur J Med Chem, 2011):
# Columns and labels:
# Assay type in all cases: ADME
# [1] = target: T1, Albumin (Bos taurus, UniProt P02769); assay: Binding affinity to bovine serum albumin at pH 7.4 by Stern-Volmer plot; conditions: cattle, isolated protein
# [2] = target: T1, Albumin; assay: Effect on secondary structure of bovine serum albumin assessed as random coil content at 0.5 uM at pH 7.4 by circular dichroism method (reference value: 6 %); conditions: cattle, pH 7.4, 0.5 µM
# [3] = target: T1, Albumin; assay: Effect on secondary structure of bovine serum albumin assessed as turn structure content at 0.5 uM at pH 7.4 by circular dichroism method (reference value: 12 %); conditions: cattle, pH 7.4, 0.5 µM
# [4] = target: T1, Albumin; assay: Binding affinity to bovine serum albumin at pH 7.4 by McGhee and von Hippel method; conditions: cattle, isolated protein
# [5] = target: T1, Albumin; assay: Binding affinity to bovine serum albumin at pH 7.4 by fluorescence spectroscopy; conditions: cattle, isolated protein
# [6] = target: T1, Albumin; assay: Effect on secondary structure of bovine serum albumin assessed as beta-sheet content at 0.5 uM at pH 7.4 by circular dichroism method (reference value: 16 %); conditions: cattle, pH 7.4, 0.5 µM
# [7] = target: T1, Albumin; assay: Effect on secondary structure of bovine serum albumin assessed as alpha-helix content at 0.5 uM at pH 7.4 by circular dichroism method (reference value: 63 %); conditions: cattle, pH 7.4, 0.5 µM
# [8] = target: T1, Albumin; assay: Effect on secondary structure of bovine serum albumin assessed as beta antiparallel content at 0.5 uM at pH 7.4 by circular dichroism method (reference value: 3 %); conditions: cattle, pH 7.4, 0.5 µM
# [9] = target: T1, Albumin; assay: Binding affinity to bovine serum albumin at 1 to 100 uM at pH 7.4 by fluorescence spectroscopy; conditions: cattle, isolated protein, pH 7.4, 100 µM
# T1 sequence (P02769 whole entry): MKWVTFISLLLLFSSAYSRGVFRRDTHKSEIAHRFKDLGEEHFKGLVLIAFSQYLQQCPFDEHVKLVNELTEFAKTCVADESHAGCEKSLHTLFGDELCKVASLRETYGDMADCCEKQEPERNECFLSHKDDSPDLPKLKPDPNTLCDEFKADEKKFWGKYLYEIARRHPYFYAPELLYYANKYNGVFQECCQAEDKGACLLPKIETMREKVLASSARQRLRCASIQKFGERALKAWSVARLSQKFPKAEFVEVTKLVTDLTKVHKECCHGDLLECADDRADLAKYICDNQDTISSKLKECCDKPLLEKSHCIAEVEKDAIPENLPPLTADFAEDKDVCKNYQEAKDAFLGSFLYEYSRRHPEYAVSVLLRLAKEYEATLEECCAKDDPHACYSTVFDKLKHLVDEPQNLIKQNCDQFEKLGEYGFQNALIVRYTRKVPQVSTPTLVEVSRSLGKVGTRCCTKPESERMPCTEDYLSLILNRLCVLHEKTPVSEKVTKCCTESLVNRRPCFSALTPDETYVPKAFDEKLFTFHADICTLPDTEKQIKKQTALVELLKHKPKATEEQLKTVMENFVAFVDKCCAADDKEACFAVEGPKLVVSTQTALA
K [1] [×10⁴ /M],Activity [2] [%],Activity [3] [%],K [4] [×10⁴ /M],K [5],Activity [6] [%],Activity [7] [%],Activity [8] [%],Activity [9] [%],Compound
0.8,15,21,1.1,8.01 ×10³ /M,14,47,3,–,CC/C(=C(\c1ccc(O)cc1)c1ccc(OCCNC)cc1)c1ccccc1 [ENDOXIFEN]
1.96,10,20,1.65,1.96 ×10⁴ /M,26,41,3,98,CC/C(=C(\c1ccccc1)c1ccc(OCCN(C)C)cc1)c1ccccc1 [TAMOXIFEN]

Compound,K [1] [×10⁴ /M],Activity [2] [%],Activity [3] [%],K [4] [×10⁴ /M],K [5],Activity [6] [%],Activity [7] [%],Activity [8] [%],Activity [9] [%]
CCC(=C(c1ccc(O)cc1)c1ccc(OCCN(C)C)cc1)c1ccccc1,1.8,20,21,1.5,1.8 ×10⁴ /M,17,39,3,–
